Results taken from patent US9969694B2, “N-(arylalkyl)-N′-pyrazolyl-urea, thiourea, guanidine and cyanoguanidine compounds as TrkA kinase inhibitors” (Array BioPharma Inc., priority 2012, dated 2018).

Key:
[1] = target: T1, IKKalpha (Homo sapiens, UniProt O15111); assay: Off-Target Kinase Profiling; assay type: biochemical; conditions: 10 μM; ATP near Km
T1 construct: purchased Millipore, Inc. (KinaseProfiler service)
Method in brief: (§1)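 10 μM inhibitor, two replicates, ATP near Km for the given kinase. Result given as % of control activity, averaged.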

[2] = target: T2, MINK (Homo sapiens, UniProt Q8N4C8); assay: Off-Target Kinase Profiling; assay type: biochemical; conditions: 10 μM; ATP near Km
T2 construct: purchased Millipore, Inc. (KinaseProfiler service)
Method in brief: as §1

[3] = target: T3, CHK2 (Homo sapiens, UniProt O96017); assay: Off-Target Kinase Profiling; assay type: biochemical; conditions: 10 μM; ATP near Km
T3 construct: purchased Millipore, Inc. (KinaseProfiler service)
Method in brief: as §1

[4] = target: T4, Fyn (Homo sapiens, UniProt P06241); assay: Off-Target Kinase Profiling; assay type: biochemical; conditions: 10 μM; ATP near Km
T4 construct: purchased Millipore, Inc. (KinaseProfiler service)
Method in brief: as §1

[5] = target: T5, MKK6 (Homo sapiens, UniProt P52564); assay: Off-Target Kinase Profiling; assay type: biochemical; conditions: 10 μM; ATP near Km
T5 construct: purchased Millipore, Inc. (KinaseProfiler service)
Method in brief: as §1

[6] = target: T6, TAO3 (Homo sapiens, UniProt Q9H2K8); assay: Off-Target Kinase Profiling; assay type: biochemical; conditions: 10 μM; ATP near Km
T6 construct: purchased Millipore, Inc. (KinaseProfiler service)
Method in brief: as §1

[7] = target: T7, MST3 (Homo sapiens, UniProt Q9Y6E0); assay: Off-Target Kinase Profiling; assay type: biochemical; conditions: 10 μM; ATP near Km
T7 construct: purchased Millipore, Inc. (KinaseProfiler service)
Method in brief: as §1

[8] = target: T8, IR Activated (Homo sapiens, UniProt P06213); assay: Off-Target Kinase Profiling; assay type: biochemical; conditions: 10 μM; ATP near Km
T8 construct: purchased Millipore, Inc. (KinaseProfiler service)
Method in brief: as §1

[9] = target: T9, TSSK2 (Homo sapiens, UniProt Q96PF2); assay: Off-Target Kinase Profiling; assay type: biochemical; conditions: 10 μM; ATP near Km
T9 construct: purchased Millipore, Inc. (KinaseProfiler service)
Method in brief: as §1

[10] = target: T10, DDR2 (Homo sapiens, UniProt Q16832); assay: Off-Target Kinase Profiling; assay type: biochemical; conditions: 10 μM; ATP near Km
T10 construct: purchased Millipore, Inc. (KinaseProfiler service)
Method in brief: as §1

[11] = target: T11, ErbB4 (Homo sapiens, UniProt Q15303); assay: Off-Target Kinase Profiling; assay type: biochemical; conditions: 10 μM; ATP near Km
T11 construct: purchased Millipore, Inc. (KinaseProfiler service)
Method in brief: as §1

[12] = target: T12, Bmx (Homo sapiens, UniProt P51813); assay: Off-Target Kinase Profiling; assay type: biochemical; conditions: 10 μM; ATP near Km
T12 construct: purchased Millipore (KinaseProfiler service)
Method in brief: as §1

[13] = target: T13, Txk (Homo sapiens, UniProt P42681); assay: Off-Target Kinase Profiling; assay type: biochemical; conditions: 10 μM; ATP near Km
T13 construct: purchased Millipore, Inc. (KinaseProfiler service)
Method in brief: as §1

[14] = target: T14, CK1gamma3 (Homo sapiens, UniProt Q9Y6M4); assay: Off-Target Kinase Profiling; assay type: biochemical; conditions: 10 μM; ATP near Km
T14 construct: purchased Millipore, Inc. (KinaseProfiler service)
Method in brief: as §1

[15] = target: T15, CDK7/cyclinH/MAT1 (Homo sapiens, UniProt P50613); assay: Off-Target Kinase Profiling; assay type: biochemical; conditions: 10 μM; ATP near Km
T15 construct: purchased Millipore, Inc. (KinaseProfiler service)
Method in brief: as §1

[16] = target: T16, p38gamma (Homo sapiens, UniProt P53778); assay: Off-Target Kinase Profiling; assay type: biochemical; conditions: 10 μM; ATP near Km
T16 construct: purchased Millipore, Inc. (KinaseProfiler service)
Method in brief: as §1

[17] = target: T17, GRK7 (Homo sapiens, UniProt Q8WTQ7); assay: Off-Target Kinase Profiling; assay type: biochemical; conditions: 10 μM; ATP near Km
T17 construct: purchased Millipore, Inc. (KinaseProfiler service)
Method in brief: as §1

[18] = target: T18, Rsk2 (Homo sapiens, UniProt P51812); assay: Off-Target Kinase Profiling; assay type: biochemical; conditions: 10 μM; ATP near Km
T18 construct: purchased Millipore, Inc. (KinaseProfiler service)
Method in brief: as §1

[19] = target: T19, EphA2 (Homo sapiens, UniProt P29317); assay: Off-Target Kinase Profiling; assay type: biochemical; conditions: 10 μM; ATP near Km
T19 construct: purchased Millipore, Inc. (KinaseProfiler service)
Method in brief: as §1

[20] = target: T20, EphB2 (Homo sapiens, UniProt P29323); assay: Off-Target Kinase Profiling; assay type: biochemical; conditions: 10 μM; ATP near Km
T20 construct: purchased Millipore, Inc. (KinaseProfiler service)
Method in brief: as §1

[21] = target: T21, SGK2 (Homo sapiens, UniProt Q9HBY8); assay: Off-Target Kinase Profiling; assay type: biochemical; conditions: 10 μM; ATP near Km
T21 construct: purchased Millipore, Inc. (KinaseProfiler service)
Method in brief: as §1

[22] = target: T22, ZAP-70 (Homo sapiens, UniProt P43403); assay: Off-Target Kinase Profiling; assay type: biochemical; conditions: 10 μM; ATP near Km
T22 construct: purchased Millipore, Inc. (KinaseProfiler service)
Method in brief: as §1

[23] = target: T23, Flt3 (Homo sapiens, UniProt P36888); assay: Off-Target Kinase Profiling; assay type: biochemical; conditions: 10 μM; ATP near Km
T23 construct: purchased Millipore, Inc. (KinaseProfiler service)
Method in brief: as §1

[24] = target: T24, CAMK4 (Homo sapiens, UniProt Q16566); assay: Off-Target Kinase Profiling; assay type: biochemical; conditions: 10 μM; ATP near Km
T24 construct: purchased Millipore (KinaseProfiler service)
Method in brief: as §1

[25] = target: T25, His-tagged recombinant human TrkA (Homo sapiens, UniProt P04629); assay: TrkA Kinase Binding Assay (LanthaScreen Eu); conditions: averaged IC50; TR-FRET binding, 60 min, 22° C.; read-out: TrkA Enzyme IC50
T25 construct: 6HIS tagged cytoplasmic domain from Invitrogen, Catalog No. PV3144; purchased Invitrogen PV3144
Method in brief: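 TR-FRET tracer displacement: 5 nM His-tagged TrkA cytoplasmic domain with 4 nM Tracer 236, biotinylated anti-His and Eu-streptavidin in pH 7.5 MOPS buffer, 2% DMSO, 60 min at 22 °C. 665/615 nm emission ratio gave percent of control; IC50 from four-parameter fit.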

T18 sequence (P51812 whole entry): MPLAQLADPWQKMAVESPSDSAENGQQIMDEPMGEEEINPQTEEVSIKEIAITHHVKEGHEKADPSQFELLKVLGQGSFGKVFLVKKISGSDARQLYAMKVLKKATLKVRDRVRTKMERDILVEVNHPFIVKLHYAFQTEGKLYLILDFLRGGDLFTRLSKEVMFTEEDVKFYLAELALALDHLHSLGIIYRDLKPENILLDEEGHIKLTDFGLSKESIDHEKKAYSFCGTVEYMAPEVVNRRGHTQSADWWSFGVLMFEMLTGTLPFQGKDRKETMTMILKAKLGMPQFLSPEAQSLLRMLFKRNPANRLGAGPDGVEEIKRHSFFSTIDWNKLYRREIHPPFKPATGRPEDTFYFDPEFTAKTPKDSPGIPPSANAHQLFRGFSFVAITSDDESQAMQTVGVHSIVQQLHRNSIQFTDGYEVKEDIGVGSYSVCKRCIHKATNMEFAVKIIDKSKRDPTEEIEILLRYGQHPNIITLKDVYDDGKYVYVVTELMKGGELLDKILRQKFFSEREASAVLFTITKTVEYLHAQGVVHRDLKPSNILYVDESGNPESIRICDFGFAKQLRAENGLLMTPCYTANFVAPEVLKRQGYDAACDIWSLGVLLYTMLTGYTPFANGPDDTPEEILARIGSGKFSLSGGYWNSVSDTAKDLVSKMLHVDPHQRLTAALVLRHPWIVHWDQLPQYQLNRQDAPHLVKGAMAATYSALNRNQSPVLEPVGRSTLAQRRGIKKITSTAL
T3 sequence (O96017 whole entry): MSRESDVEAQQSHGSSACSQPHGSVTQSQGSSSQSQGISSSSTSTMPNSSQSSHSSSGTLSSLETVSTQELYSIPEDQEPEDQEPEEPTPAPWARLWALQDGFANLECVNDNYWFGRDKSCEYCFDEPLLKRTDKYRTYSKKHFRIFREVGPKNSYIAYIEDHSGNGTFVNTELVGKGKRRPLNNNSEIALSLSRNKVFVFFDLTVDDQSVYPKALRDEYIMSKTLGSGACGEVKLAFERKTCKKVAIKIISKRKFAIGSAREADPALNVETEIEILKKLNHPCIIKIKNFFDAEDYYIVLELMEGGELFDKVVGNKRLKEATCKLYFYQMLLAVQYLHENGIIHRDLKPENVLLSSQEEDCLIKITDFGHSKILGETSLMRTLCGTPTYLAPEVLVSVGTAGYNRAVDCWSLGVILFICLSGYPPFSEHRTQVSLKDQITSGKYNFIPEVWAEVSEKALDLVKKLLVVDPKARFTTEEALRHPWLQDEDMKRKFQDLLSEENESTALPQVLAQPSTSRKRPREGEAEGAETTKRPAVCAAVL
T25 sequence (P04629 440-796 limits assumed): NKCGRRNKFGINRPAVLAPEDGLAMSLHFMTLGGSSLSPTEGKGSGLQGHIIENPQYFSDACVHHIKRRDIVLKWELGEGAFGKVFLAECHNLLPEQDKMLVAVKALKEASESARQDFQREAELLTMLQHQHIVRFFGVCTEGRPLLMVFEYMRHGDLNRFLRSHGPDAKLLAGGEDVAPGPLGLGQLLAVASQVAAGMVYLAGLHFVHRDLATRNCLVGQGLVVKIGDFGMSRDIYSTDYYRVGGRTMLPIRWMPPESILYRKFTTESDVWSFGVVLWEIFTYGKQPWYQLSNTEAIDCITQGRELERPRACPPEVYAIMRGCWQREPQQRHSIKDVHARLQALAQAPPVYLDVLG
T23 sequence (P36888 27-993): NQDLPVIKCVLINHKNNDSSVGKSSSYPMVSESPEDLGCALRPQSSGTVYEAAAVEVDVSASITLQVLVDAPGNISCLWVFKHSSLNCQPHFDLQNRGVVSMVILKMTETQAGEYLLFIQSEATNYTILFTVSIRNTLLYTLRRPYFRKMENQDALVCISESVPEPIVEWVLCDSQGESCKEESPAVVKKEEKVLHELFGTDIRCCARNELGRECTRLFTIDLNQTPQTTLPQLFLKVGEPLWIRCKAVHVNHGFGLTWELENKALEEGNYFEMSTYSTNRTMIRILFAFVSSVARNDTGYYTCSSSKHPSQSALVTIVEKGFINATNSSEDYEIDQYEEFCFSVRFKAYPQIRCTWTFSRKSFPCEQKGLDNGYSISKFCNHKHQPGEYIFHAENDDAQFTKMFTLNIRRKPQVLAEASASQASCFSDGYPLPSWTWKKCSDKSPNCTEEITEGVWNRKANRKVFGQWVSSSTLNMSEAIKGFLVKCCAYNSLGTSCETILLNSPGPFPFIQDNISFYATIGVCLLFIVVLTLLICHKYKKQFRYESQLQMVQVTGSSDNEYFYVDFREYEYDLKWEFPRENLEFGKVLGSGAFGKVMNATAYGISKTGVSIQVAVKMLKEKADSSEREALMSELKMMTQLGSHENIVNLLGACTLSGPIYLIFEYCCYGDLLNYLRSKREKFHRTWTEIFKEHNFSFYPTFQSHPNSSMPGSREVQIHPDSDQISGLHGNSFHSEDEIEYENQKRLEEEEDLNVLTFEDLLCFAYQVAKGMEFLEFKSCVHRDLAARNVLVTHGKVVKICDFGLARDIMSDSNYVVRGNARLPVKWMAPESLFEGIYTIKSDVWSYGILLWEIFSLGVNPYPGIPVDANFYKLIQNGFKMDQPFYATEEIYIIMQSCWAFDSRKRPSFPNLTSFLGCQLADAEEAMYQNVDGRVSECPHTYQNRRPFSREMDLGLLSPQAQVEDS
T1 sequence (O15111 whole entry): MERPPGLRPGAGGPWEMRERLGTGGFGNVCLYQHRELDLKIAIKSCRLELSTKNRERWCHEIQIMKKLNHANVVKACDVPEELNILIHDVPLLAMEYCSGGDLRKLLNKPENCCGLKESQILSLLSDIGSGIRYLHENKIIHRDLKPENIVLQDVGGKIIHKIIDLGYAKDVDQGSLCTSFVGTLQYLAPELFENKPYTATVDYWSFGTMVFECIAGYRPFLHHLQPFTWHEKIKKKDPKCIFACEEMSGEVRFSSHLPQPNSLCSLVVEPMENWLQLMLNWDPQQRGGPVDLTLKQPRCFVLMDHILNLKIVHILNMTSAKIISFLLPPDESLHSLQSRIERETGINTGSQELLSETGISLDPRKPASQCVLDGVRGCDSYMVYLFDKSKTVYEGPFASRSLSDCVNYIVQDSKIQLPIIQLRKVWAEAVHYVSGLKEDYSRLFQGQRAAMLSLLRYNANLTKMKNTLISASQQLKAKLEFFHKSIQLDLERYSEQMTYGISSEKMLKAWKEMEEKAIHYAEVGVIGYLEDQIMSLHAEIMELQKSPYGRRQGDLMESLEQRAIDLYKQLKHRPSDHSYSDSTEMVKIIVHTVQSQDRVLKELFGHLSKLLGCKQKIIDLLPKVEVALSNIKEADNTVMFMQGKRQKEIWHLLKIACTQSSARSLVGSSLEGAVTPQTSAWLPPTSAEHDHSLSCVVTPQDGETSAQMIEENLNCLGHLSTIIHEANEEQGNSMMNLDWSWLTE
T5 sequence (P52564 whole entry): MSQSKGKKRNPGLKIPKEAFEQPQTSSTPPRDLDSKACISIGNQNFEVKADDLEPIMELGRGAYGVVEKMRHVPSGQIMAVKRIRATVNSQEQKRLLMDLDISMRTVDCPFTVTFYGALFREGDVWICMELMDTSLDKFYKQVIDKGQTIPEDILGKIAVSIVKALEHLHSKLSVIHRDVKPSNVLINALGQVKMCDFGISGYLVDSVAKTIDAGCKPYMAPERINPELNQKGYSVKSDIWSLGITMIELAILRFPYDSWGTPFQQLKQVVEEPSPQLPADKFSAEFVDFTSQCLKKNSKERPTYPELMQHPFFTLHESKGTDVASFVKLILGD
T13 sequence (P42681 whole entry): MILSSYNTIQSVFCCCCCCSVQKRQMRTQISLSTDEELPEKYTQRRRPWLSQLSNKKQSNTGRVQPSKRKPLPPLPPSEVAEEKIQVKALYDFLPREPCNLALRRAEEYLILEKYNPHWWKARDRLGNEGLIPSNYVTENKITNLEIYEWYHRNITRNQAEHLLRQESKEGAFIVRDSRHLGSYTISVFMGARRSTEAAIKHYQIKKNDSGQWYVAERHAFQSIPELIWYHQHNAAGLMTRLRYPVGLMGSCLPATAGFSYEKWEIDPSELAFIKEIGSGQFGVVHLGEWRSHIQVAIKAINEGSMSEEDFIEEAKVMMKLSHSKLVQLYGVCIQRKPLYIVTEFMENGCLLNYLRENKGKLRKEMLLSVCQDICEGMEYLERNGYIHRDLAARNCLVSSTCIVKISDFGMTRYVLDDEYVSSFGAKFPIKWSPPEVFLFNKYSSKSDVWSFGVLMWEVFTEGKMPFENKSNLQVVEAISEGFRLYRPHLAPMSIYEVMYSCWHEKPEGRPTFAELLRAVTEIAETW
T21 sequence (Q9HBY8 whole entry): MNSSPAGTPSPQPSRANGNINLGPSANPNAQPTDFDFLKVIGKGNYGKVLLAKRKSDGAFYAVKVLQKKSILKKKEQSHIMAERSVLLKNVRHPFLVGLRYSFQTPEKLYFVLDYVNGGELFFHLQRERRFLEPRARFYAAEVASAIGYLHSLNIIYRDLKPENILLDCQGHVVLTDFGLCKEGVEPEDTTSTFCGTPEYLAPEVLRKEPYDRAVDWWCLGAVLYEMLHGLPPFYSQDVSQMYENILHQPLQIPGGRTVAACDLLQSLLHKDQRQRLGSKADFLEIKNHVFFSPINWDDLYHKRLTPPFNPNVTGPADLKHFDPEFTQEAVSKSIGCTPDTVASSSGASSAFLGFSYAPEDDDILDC
T8 sequence (P06213 1005-1310 limits assumed): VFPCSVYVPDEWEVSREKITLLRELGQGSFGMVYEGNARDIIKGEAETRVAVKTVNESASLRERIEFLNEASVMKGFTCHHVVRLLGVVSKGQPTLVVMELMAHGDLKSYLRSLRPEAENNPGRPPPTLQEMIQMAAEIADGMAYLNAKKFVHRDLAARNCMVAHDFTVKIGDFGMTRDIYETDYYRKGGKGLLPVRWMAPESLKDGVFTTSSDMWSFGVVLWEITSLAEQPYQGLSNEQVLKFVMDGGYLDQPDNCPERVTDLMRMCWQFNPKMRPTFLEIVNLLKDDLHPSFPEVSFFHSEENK

Row | Compound | Avg POC IKKalpha [1] | Avg POC MINK [2] | Avg POC CHK2 [3] | Avg POC Fyn [4] | Avg POC MKK6 [5] | Avg POC TAO3 [6] | Avg POC MST3 [7] | Avg POC IR Activated [8] | Avg POC TSSK2 [9] | Avg POC DDR2 [10] | Avg POC ErbB4 [11] | Avg POC Bmx [12] | Avg POC Txk [13] | Avg POC CK1gamma3 [14] | Avg POC CDK7/cyclinH/MAT1 [15] | Avg POC p38gamma [16] | Avg POC GRK7 [17] | Avg POC Rsk2 [18] | Avg POC EphA2 [19] | Avg POC EphB2 [20] | also measured
1 | COCc1ccc(C2CCC2)c(CNC(=O)Nc2c(C)c(-c3cnc(C)nc3)nn2-c2ccccc2)c1 [Example 10, 1-(2-cyclobutyl-5-(methoxymethyl)benzyl)-3-(4-methyl-3-(2-methylpyrimidin-5-yl)-1-phenyl-1H-pyrazol-5-yl)urea] | 112.5 POC | 139.5 POC | 93 POC | 103 POC | 131.5 POC | 88.5 POC | 99 POC | 99 POC | 90 POC | 105.5 POC | 108.5 POC | 100 POC | 104.5 POC | 39 POC | 96.5 POC | 102.5 POC | 105 POC | 129.5 POC | 103 POC | 103 POC | Avg POC SGK2 [21]: 80.5 POC; Avg POC ZAP-70 [22]: 120.5 POC; Avg POC Flt3 [23]: 54 POC; Avg POC CAMK4 [24]: 144.5 POC; IC50 [25]: < 100 nM
2 | COCc1ccc(C(F)(F)F)c(CNC(=O)Nc2c(C)c(-c3cnn(C)c3)nn2-c2ccccc2)c1 [Example 33, 1-(1′,4-dimethyl-1-phenyl-1H,1′H-[3,4′-bipyrazol]-5-yl)-3-(5-(methoxymethyl)-2-(trifluoromethyl)benzyl)urea] | 137.5 POC | 100 POC | 138 POC | 113 POC | 143 POC | 89.5 POC | 126.5 POC | 103.5 POC | 131 POC | 111 POC | 130.5 POC | 127.5 POC | 156.5 POC | 119.5 POC | 113.5 POC | 107.5 POC | 103 POC | 146 POC | 126.5 POC | 112.5 POC | Avg POC SGK2 [21]: 208 POC; Avg POC ZAP-70 [22]: 149 POC; Avg POC Flt3 [23]: 78.5 POC; Avg POC CAMK4 [24]: 149 POC; IC50 [25]: < 100 nM
